Laboratory results taken from ChEMBL document CHEMBL5331135, “Design, Synthesis, and Evaluation of Glucose Transporter Inhibitor-SN38 Conjugates for Targeting Colorectal Cancer” (J Med Chem, 2023).

Assays:
[1] = tested on: HCT-116; assay: Cytotoxicity against human HCT-116 cells incubated for 48 hrs by SRB assay; assay type: functional, cell-based; conditions: HCT-116, 48 h
[2] = tested on: HT-29; assay: Cytotoxicity against human HT-29 cells incubated for 48 hrs by SRB assay; assay type: functional, cell-based; conditions: HT-29, 48 h
[3] = tested on: COLO 205; assay: Cytotoxicity against human COLO 205 cells incubated for 48 hrs by SRB assay; assay type: functional, cell-based; conditions: COLO 205, 48 h
[4] = Toxicity in AOM/DSS-induced orthotopic CRC BALB/c mouse model assessed as body weight loss at 20 mg/kg, ip administered every other day for 2 weeks; assay type: organism-based; conditions: in vivo, 336 h
[5] = Toxicity in AOM/DSS-induced orthotopic CRC BALB/c mouse model assessed as body weight loss at 40 mg/kg, iv administered once every 2 days for 2 weeks; assay type: organism-based; conditions: in vivo, 336 h
[6] = Biodistribution in gastrointestinal tract of BALB/c mouse at 20 mg/kg, ip measured after 4 hrs by UHPLC-MS/MS analysis; assay type: ADME, organism-based; conditions: in vivo
[7] = Biodistribution in colorectal tumor site of BALB/c mouse at 20 mg/kg, ip measured after 4 hrs by UHPLC-MS/MS analysis; assay type: ADME, organism-based, Neoplasm; conditions: in vivo
[8] = Biodistribution in heart of BALB/c mouse at 20 mg/kg, ip measured after 4 hrs by UHPLC-MS/MS analysis; assay type: ADME, organism-based; conditions: in vivo
[9] = Biodistribution in liver of BALB/c mouse at 20 mg/kg, ip measured after 4 hrs by UHPLC-MS/MS analysis; assay type: ADME, organism-based; conditions: in vivo
[10] = Biodistribution in spleen of BALB/c mouse at 20 mg/kg, ip measured after 4 hrs by UHPLC-MS/MS analysis; assay type: ADME, organism-based; conditions: in vivo
[11] = Biodistribution in brain of BALB/c mouse at 20 mg/kg, ip measured after 4 hrs by UHPLC-MS/MS analysis; assay type: ADME, organism-based; conditions: in vivo
[12] = Prodrug conversion in heart of BALB/c mouse assessed as SN38 release at 20 mg/kg, ip measured after 4 hrs by UHPLC-MS/MS analysis; assay type: ADME, organism-based; conditions: in vivo
[13] = Prodrug conversion in liver of BALB/c mouse assessed as SN38 release at 20 mg/kg, ip measured after 4 hrs by UHPLC-MS/MS analysis; assay type: ADME, organism-based; conditions: in vivo
[14] = Prodrug conversion in spleen of BALB/c mouse assessed as SN38 release at 20 mg/kg, ip measured after 4 hrs by UHPLC-MS/MS analysis; assay type: ADME, organism-based; conditions: in vivo
[15] = Prodrug conversion in lung of BALB/c mouse assessed as SN38 release at 20 mg/kg, ip measured after 4 hrs by UHPLC-MS/MS analysis; assay type: ADME, organism-based; conditions: in vivo
[16] = Prodrug conversion in kidney of BALB/c mouse assessed as SN38 release at 20 mg/kg, ip measured after 4 hrs by UHPLC-MS/MS analysis; assay type: ADME, organism-based; conditions: in vivo
[17] = Prodrug conversion in stomach of BALB/c mouse assessed as SN38 release at 20 mg/kg, ip measured after 4 hrs by UHPLC-MS/MS analysis; assay type: ADME, organism-based; conditions: in vivo
[18] = Prodrug conversion in intestine of BALB/c mouse assessed as SN38 release at 20 mg/kg, ip measured after 4 hrs by UHPLC-MS/MS analysis; assay type: ADME, organism-based; conditions: in vivo
[19] = Prodrug conversion in tumor of BALB/c mouse assessed as SN38 release at 20 mg/kg, ip measured after 4 hrs by UHPLC-MS/MS analysis; assay type: ADME, organism-based, Neoplasm; conditions: in vivo
[20] = Prodrug conversion in brain of BALB/c mouse assessed as SN38 release at 20 mg/kg, ip measured after 4 hrs by UHPLC-MS/MS analysis; assay type: ADME, organism-based; conditions: in vivo
[21] = Drug concentration in heart of BALB/c mouse at 40 mg/kg, iv measured after 4 hrs by UHPLC-MS/MS analysis; assay type: ADME, organism-based; conditions: in vivo
[22] = Drug concentration in liver of BALB/c mouse at 40 mg/kg, iv measured after 4 hrs by UHPLC-MS/MS analysis; assay type: ADME, organism-based; conditions: in vivo
[23] = Drug concentration in spleen of BALB/c mouse at 40 mg/kg, iv measured after 4 hrs by UHPLC-MS/MS analysis; assay type: ADME, organism-based; conditions: in vivo
[24] = Drug concentration in kidney of BALB/c mouse at 40 mg/kg, iv measured after 4 hrs by UHPLC-MS/MS analysis; assay type: ADME, organism-based; conditions: in vivo
[25] = Drug concentration in stomach of BALB/c mouse at 40 mg/kg, iv measured after 4 hrs by UHPLC-MS/MS analysis; assay type: ADME, organism-based; conditions: in vivo
[26] = Drug concentration in intestine of BALB/c mouse at 40 mg/kg, iv measured after 4 hrs by UHPLC-MS/MS analysis; assay type: ADME, organism-based; conditions: in vivo
[27] = Drug concentration in tumor of BALB/c mouse at 40 mg/kg, iv measured after 4 hrs by UHPLC-MS/MS analysis; assay type: ADME, organism-based, Neoplasm; conditions: in vivo
[28] = Drug concentration in brain of BALB/c mouse at 40 mg/kg, iv measured after 4 hrs by UHPLC-MS/MS analysis; assay type: ADME, organism-based; conditions: in vivo
[29] = Prodrug conversion in tumor of BALB/c mouse assessed as SN38 release at 40 mg/kg, iv measured after 4 hrs by UHPLC-MS/MS analysis; assay type: ADME, organism-based, Neoplasm; conditions: in vivo
[30] = Prodrug conversion in liver of BALB/c mouse assessed as SN38 release at 40 mg/kg, iv measured after 4 hrs by UHPLC-MS/MS analysis; assay type: ADME, organism-based; conditions: in vivo

CCc1c2c(nc3ccc(OC(=O)N4CCC(N5CCCCC5)CC4)cc13)-c1cc3c(c(=O)n1C2)COC(=O)[C@]3(O)CC [IRINOTECAN] gave an IC50 [1] of 3.69 µM, an IC50 [2] of 8.51 µM and an IC50 [3] of 9.9 µM. The Activity [4] was “Non-Toxic”, the Activity [5] was “Non-Toxic” and the Drug uptake [6] was “Active”. For the same compound, the Drug uptake [7] was “Active”, the Drug uptake [8] was “Active” and the Drug uptake [9] was “Active”. The Drug uptake [10] was “Active”, the Drug uptake [11] was “Active” and the Drug metabolism [12] was “Metabolite_Detected”. For the same compound, the Drug metabolism [13] was “Metabolite_Detected”, the Drug metabolism [14] was “Metabolite_Detected” and the Drug metabolism [15] was “Metabolite_Detected”. The Drug metabolism [16] was “Metabolite_Detected”, the Drug metabolism [17] was “Metabolite_Detected” and the Drug metabolism [18] was “Metabolite_Detected”. For the same compound, the Drug metabolism [19] was “Metabolite_Detected”, the Drug metabolism [20] was “Metabolite_Detected” and the Ct [21] was “Active”. The Ct [22] was “Active”, the Ct [23] was “Active” and the Ct [24] was “Active”. For the same compound, the Ct [25] was “Active”, the Ct [26] was “Active” and the Ct [27] was “Active”. For the same compound, the Ct [28] was “Active”, the Drug metabolism [29] was “Metabolite_Detected” and the Drug metabolism [30] was “Metabolite_Detected”.
